Measurements reported in patent publication US10676468B2, “N-(3-heteroarylaryl)-4-arylarylcarboxamides and analogs as hedgehog pathway inhibitors and use thereof” (IMPACT Therapeutics, Inc., priority 2012, dated 2020).

Legend:
Type in all cases: cell-based, mouse
[1] = system: Hedgehog Signaling Pathway; assay: Gli-Luc reporter gene cell assay in C3H10T1/2/Gli-Luc cells stimulated with Shh; conditions: 30 nM Shh, luciferase activity (RLU), read-out: IC50 values of compounds that inhibit Hh pathway
Outline: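 C3H10T1/2 cells stably carrying Gli-responsive luciferase were seeded overnight, then treated 24 h at 37 °C with compound (7-point dilution series, DMSO control) plus Shh (30 nM in added medium). Lysate luciferase RLU fitted against log concentration to derive IC50.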

[2] = system: Hedgehog Signaling Pathway; assay: SAG-induced differentiation of C3H10T1/2 cells into osteoblastic cells, intracellular alkaline phosphatase activity; conditions: 1 μM SAG, 5 days, alkaline phosphatase activity (OD405), read-out: IC50 values of compounds that inhibit Hh pathway
Outline: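 Mouse C3H10T1/2 cells were induced with SAG and exposed to compound (10 μM to 1 nM) for 5 days at 37 °C. Cells were lysed in 0.2% Triton, and alkaline phosphatase activity was read as OD405 over 30 min at 37 °C in pH 9.8 substrate buffer. IC50 came from a non-linear fit of background-subtracted OD405 against log concentration.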

[3] = system: Hedgehog Signaling Pathway; assay: SHH-induced differentiation of C3H10T1/2 cells into osteoblastic cells, intracellular alkaline phosphatase activity; conditions: 10 nM SHH-N, 5 days, alkaline phosphatase activity (OD405), read-out: IC50 values of compounds that inhibit Hh pathway
Outline: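 Mouse C3H10T1/2 cells were induced with 10 nM SHH-N alongside test compound (10 μM–10 nM) for 5 days at 37 °C. Cells were lysed in 0.2% Triton, and alkaline phosphatase activity was read at OD405 over 30 min at 37 °C with the background reading subtracted. IC50 came from a nonlinear fit against log concentration.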

[4] = Mus musculus, C3H 10T1/2, 120 h

Row | IC50 ([1]; Mus musculus, C3H 10T1/2, 24 h) [nM] | IC50 [2, 4] [nM] | IC50 [3, 4] [nM] | Compound | IC50 ([1]; 24 hours) [nM] | IC50 [2] [nM] | IC50 [3] [nM]
1 | 3.7 | 52 | 1.3 | C[C@@H]1CN(c2ccc(C(=O)Nc3ccc(Cl)c(-c4ccccn4)c3)c(Cl)c2)C[C@H](C)N1C [Example 208, N-(3-(pyridin-2-yl)-4-chlorophenyl)-2-chloro-4-((3S,5R)-3,4,5-trimethylpiperazin-1-yl)benzamide] |  |  | 
2 | > 10000 | 1800 | > 10000 | C[C@@H]1CN(c2ccc(C(=O)Nc3ccc(Cl)c(-c4ncccn4)c3)c(Cl)c2)C[C@H](C)N1C [Example 209, N-(3-(pyrimidin-2-yl)-4-chlorophenyl)-2-chloro-4-((3S,5R)-3,4,5-trimethylpiperazin-1-yl)benzamide] |  |  | 
3 | 43 | 108 | 38 | CS(=O)(=O)c1ccc(C(=O)Nc2ccc(Cl)c(-c3ccccn3)c2)c(Cl)c1 [GDC-0449, reference compound] |  |  | 
4 |  |  |  | N-(3-(1H-benzo[d]imidazol-2-yl)-4-chlorophenyl)-2-cyano-4-((3S,5R)-3,4,5-trimethylpiperazin-1-yl)benzamide Dihydrochloride [Example 134] | > 10000 | > 10000 | > 10000
5 |  |  |  | N-(3-(5-(furan-2-yl)-1H-imidazol-2-yl)-4-chlorophenyl)-2-cyano-4-((3S,5R)-3,4,5-trimethylpiperazin-1-yl)benzamide [Example 147] | > 10000 | > 10000 | > 10000
